Experimental data taken from the supplement of paper PMC8671470.

Assays:
Conditions in all cases: 72 h
K-562 [1] = test system: K-562
Summary of the method: (§1)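 In 384-well plates holding acoustically pre-printed compounds at five tenfold doses from 1 to 10,000 nM, in duplicate, fifteen myeloid leukaemia cell lines were grown in RPMI 1640 for 72 h at 37 °C with 5% CO2. Luminescent ATP viability was scaled between vehicle and a positive control at 10 µM. The IC50 was then taken from log-logistic dose–response fits with four parameters.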

HEL [2] = test system: HEL
Summary of the method: as §1

LAMA-84 [3] = test system: LAMA-84
Summary of the method: as §1

BV-173 [4] = test system: BV-173
Summary of the method: as §1

MV4-11 [5] = test system: MV4-11
Summary of the method: as §1

KU-812 [6] = test system: KU-812
Summary of the method: as §1

KCL-22 [7] = test system: KCL-22
Summary of the method: as §1

Mono-Mac-6 [8] = test system: Mono-Mac-6
Summary of the method: as §1

KG-1 [9] = test system: KG-1
Summary of the method: as §1

ML-2 [10] = test system: ML-2
Summary of the method: as §1

THP-1 [11] = test system: THP-1
Summary of the method: as §1

HL-60 [12] = test system: HL-60
Summary of the method: as §1

MOLM-13 [13] = test system: MOLM-13
Summary of the method: as §1

NOMO-1 [14] = test system: NOMO-1
Summary of the method: as §1

SHI-1 [15] = test system: SHI-1
Summary of the method: as §1

K-562 [16] = assay: cell viability (% survival relative to DMSO control, bortezomib = 0%); higher = less cytotoxic
Summary of the method: (§2)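 Fifteen myeloid leukaemia cell lines (10 AML, 5 CML) were seeded at a density titrated to the linear growth range. They went into 384-well plates with compounds pre-printed at 1, 10, 100, 1000 or 10000 nM in duplicate. After 72 h at 37 °C with 5% CO2, viability was read by CellTiter-Glo luminescence. Values are percent survival, with vehicle set to 100% and a 10 µM positive control to 0%, averaged over the duplicates.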

HEL [17] = assay: as above
Summary of the method: as §2

LAMA-84 [18] = assay: as above
Summary of the method: as §2

BV-173 [19] = assay: as above
Summary of the method: as §2

MV4-11 [20] = assay: as above
Summary of the method: as §2

KU-812 [21] = assay: as above
Summary of the method: as §2

KCL-22 [22] = assay: as above
Summary of the method: as §2

Mono-Mac-6 [23] = assay: as above
Summary of the method: as §2

KG-1 [24] = assay: as above
Summary of the method: as §2

ML-2 [25] = assay: as above
Summary of the method: as §2

THP-1 [26] = assay: as above
Summary of the method: as §2

HL-60 [27] = assay: as above
Summary of the method: as §2

MOLM-13 [28] = assay: as above
Summary of the method: as §2

NOMO-1 [29] = assay: as above
Summary of the method: as §2

SHI-1 [30] = assay: as above
Summary of the method: as §2

CN(CCCOc1ccc(Cc2ccccc2)cc1)CCC(=O)O
Conditions	IC50 (cell viability) [µM]
BV-173 [4]	> 10
HEL [2]	> 10
HL-60 [12]	> 10
K-562 [1]	> 10
KCL-22 [7]	> 10
KG-1 [9]	> 10
KU-812 [6]	> 10
LAMA-84 [3]	> 10
ML-2 [10]	> 10
MOLM-13 [13]	> 10
MV4-11 [5]	> 10
Mono-Mac-6 [8]	> 10
NOMO-1 [14]	> 10
SHI-1 [15]	> 10
THP-1 [11]	> 10

cell viability [%]
Conditions	1 nM	10 nM	100 nM	1000 nM	10000 nM
BV-173 [19]	96.8	98.4	100	99.4	95.8
HEL [17]	107	113	102	129	110
HL-60 [27]	99.9	102	120	191	115
K-562 [16]	103	107	98.1	112	104
KCL-22 [22]	106	103	94.8	116	110
KG-1 [24]	94.1	110	104	108	92.6
KU-812 [21]	99.9	105	90.9	106	94.2
LAMA-84 [18]	110	119	95	98.2	91.9
ML-2 [25]	105	97	103	113	107
MOLM-13 [28]	119	122	91.9	133	79.1
MV4-11 [20]	99.1	97.6	96	125	87.8
Mono-Mac-6 [23]	106	90.1	101	107	89
NOMO-1 [29]	106	107	95.1	106	101
SHI-1 [30]	106	102	116	115	110
THP-1 [26]	104	103	96.1	98.4	102

Cc1c2c(=O)n(-c3ccccc3Cl)[nH]c2cc(=O)n1Cc1ccccn1
Conditions	IC50 (cell viability) [µM]
BV-173 [4]	> 10
HEL [2]	> 10
HL-60 [12]	> 10
K-562 [1]	6.52
KCL-22 [7]	> 10
KG-1 [9]	> 10
KU-812 [6]	> 10
LAMA-84 [3]	> 10
ML-2 [10]	> 10
MOLM-13 [13]	2.76
MV4-11 [5]	7.5
Mono-Mac-6 [8]	> 10
NOMO-1 [14]	> 10
SHI-1 [15]	> 10
THP-1 [11]	> 10

cell viability [%]
Conditions	1 nM	10 nM	100 nM	1000 nM	10000 nM
BV-173 [19]	98	104	94.6	95.5	81.4
HEL [17]	77.9	114	88.2	103	106
HL-60 [27]	71	96.2	94.5	90.8	105
K-562 [16]	109	92.5	89.3	77.7	54
KCL-22 [22]	60.5	119	84.4	94.6	106
KG-1 [24]	92.4	105	89.6	102	104
KU-812 [21]	88	101	92	100	98.1
LAMA-84 [18]	93.8	108	100	99.9	99.9
ML-2 [25]	86.5	112	95.4	98.6	101
MOLM-13 [28]	84.7	101	96.7	71.4	38.5
MV4-11 [20]	101	107	89.7	71.9	59.2
Mono-Mac-6 [23]	89	109	96	103	99.5
NOMO-1 [29]	102	111	95.8	100	98.3
SHI-1 [30]	84.3	103	95.7	80.8	75.9
THP-1 [26]	95.8	113	99.1	94.2	96.6
